Results on seven molecules are retold here after ChEMBL document CHEMBL5465560, “Selectivity Literature for EUbOPEN Chemogenomic Library” (2024).

Experiment [1] concerns the target T1, Muscarinic acetylcholine receptor M1 (Homo sapiens) (UniProt P11229).
T1 sequence (whole entry): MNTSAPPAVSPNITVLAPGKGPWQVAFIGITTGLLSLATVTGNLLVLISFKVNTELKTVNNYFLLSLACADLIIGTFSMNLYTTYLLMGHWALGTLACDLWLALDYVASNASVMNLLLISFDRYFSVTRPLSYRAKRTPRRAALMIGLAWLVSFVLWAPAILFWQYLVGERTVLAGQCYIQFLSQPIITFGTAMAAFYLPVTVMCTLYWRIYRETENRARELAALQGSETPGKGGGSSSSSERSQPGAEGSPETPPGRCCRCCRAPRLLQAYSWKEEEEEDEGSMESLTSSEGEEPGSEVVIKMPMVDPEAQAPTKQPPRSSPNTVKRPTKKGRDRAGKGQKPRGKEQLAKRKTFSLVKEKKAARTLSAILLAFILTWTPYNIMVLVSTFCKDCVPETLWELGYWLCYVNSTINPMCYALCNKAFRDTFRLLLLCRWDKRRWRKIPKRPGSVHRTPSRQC
The experiment can be described thus: Selectivity interaction (Panel of kinases, GPCRs, ion channels and transporters (enzymatic assay)) EUB0000266bCl CHRM1.

Experiment [2] addresses Mitogen-activated protein kinase kinase kinase 4 (Homo sapiens) (UniProt Q9Y6R4). Conditions: at 10 µM.
The target of experiment [3] is Tyrosine-protein kinase HCK (Homo sapiens) (UniProt P08631). The experiment can be described thus: Selectivity interaction (KinomeScan (DiscoverX)) EUB0001049a HCK. Conditions: at 1 µM.
Chain of Tyrosine-protein kinase HCK (Homo sapiens) (P08631 2-526 limits assumed): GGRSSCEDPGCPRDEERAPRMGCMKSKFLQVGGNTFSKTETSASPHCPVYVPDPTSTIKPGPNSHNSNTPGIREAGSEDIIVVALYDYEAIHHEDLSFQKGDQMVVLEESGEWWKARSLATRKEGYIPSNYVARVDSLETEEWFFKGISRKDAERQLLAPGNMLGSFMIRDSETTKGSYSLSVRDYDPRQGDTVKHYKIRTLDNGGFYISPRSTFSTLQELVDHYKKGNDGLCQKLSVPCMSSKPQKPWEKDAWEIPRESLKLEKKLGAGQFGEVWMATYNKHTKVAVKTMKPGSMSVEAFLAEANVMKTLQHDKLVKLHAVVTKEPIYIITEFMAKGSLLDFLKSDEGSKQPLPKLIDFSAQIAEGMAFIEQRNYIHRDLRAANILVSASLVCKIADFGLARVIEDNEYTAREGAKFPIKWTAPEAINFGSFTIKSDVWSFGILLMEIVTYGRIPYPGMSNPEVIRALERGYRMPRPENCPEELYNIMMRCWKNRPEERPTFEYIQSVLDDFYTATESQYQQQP
The target in experiment [4] is Serine/threonine-protein kinase Nek6 (Homo sapiens) (UniProt Q9HC98). Kind of experiment: Selectivity interaction (ActivX KiNativ screen (kinase selectivity in THP-1 cell lysates)) EUB0000639a NEK6. It counts as subcellular. Conditions: lysate.
Chain of Serine/threonine-protein kinase Nek6 (Homo sapiens) (Q9HC98 whole entry): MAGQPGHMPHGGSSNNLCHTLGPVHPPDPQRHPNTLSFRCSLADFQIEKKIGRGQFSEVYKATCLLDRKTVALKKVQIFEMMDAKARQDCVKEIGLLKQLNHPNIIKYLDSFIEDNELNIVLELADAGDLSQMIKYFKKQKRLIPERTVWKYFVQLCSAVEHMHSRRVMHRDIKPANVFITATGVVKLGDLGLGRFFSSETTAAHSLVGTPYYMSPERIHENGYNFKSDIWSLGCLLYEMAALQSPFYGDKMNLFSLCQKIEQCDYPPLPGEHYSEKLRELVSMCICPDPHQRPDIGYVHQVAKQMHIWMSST
The next experiment deals with Ephrin type-B receptor 4 (Homo sapiens, UniProt P54760). The experiment can be described thus: Selectivity interaction (Kinase panel (33PanQinase(R) Activity Assay)) EUB0000877a EPHB4.
Chain of Ephrin type-B receptor 4 (P54760 whole entry): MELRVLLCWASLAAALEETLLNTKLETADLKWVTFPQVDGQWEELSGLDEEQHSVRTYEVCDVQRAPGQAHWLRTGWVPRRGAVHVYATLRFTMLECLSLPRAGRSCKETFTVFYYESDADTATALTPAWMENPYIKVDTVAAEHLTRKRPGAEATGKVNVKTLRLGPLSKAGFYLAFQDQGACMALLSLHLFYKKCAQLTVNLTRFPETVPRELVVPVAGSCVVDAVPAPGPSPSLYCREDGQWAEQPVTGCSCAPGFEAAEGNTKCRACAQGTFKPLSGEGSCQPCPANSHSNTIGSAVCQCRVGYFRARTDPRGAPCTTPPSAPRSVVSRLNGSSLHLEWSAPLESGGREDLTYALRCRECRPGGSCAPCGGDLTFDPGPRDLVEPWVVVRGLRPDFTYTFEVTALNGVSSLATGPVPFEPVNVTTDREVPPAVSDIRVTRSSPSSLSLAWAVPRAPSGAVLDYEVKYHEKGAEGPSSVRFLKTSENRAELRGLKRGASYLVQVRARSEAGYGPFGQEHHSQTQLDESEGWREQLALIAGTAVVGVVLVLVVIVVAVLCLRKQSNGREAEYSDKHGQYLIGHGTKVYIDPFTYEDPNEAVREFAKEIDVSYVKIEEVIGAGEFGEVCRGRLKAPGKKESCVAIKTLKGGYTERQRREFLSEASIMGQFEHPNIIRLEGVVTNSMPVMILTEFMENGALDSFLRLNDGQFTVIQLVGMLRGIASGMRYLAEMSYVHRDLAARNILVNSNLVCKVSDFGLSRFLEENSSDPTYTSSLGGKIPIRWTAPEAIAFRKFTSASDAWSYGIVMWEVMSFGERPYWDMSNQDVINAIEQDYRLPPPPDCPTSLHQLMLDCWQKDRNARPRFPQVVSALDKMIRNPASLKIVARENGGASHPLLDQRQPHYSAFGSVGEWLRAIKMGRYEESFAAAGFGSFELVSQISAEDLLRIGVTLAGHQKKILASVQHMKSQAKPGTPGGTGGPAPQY
The target in experiment [5] is T2, Serine/threonine-protein kinase LATS1 (Homo sapiens) (UniProt O95835).
T2 sequence (whole entry): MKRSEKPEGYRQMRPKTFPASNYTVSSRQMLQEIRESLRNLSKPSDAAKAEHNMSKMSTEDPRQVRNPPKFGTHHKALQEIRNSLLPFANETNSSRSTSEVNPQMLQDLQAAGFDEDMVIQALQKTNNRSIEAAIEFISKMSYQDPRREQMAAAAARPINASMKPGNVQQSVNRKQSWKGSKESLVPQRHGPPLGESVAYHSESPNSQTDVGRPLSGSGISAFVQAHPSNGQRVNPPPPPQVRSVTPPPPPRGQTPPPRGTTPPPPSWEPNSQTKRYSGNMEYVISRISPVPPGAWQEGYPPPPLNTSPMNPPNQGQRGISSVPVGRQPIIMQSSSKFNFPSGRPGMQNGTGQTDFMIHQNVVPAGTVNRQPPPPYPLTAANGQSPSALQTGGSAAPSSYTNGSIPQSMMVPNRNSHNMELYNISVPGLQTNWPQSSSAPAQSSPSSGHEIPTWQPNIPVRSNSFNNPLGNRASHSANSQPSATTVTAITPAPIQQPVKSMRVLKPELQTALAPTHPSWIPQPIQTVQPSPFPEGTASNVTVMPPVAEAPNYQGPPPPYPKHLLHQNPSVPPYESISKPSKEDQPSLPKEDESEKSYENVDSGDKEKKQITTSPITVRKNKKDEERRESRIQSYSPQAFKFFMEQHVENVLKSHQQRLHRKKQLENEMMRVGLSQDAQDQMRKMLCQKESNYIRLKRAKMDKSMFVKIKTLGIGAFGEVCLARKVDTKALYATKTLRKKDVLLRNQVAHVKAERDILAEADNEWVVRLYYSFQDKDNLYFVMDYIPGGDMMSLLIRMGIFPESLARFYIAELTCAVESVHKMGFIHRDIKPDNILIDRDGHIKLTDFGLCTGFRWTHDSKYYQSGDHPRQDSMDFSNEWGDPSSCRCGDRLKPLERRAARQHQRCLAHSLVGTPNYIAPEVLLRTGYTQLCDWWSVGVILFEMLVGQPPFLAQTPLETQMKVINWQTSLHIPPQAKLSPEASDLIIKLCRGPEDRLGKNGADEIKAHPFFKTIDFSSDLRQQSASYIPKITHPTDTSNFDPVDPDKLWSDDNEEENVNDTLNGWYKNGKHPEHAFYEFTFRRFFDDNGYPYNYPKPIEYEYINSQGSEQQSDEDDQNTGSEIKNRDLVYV
The following applies: at 10 µM.

For experiment [6], the target named is T3, Tyrosine-protein kinase ZAP-70 (Homo sapiens) (UniProt P43403).
T3 sequence (whole entry): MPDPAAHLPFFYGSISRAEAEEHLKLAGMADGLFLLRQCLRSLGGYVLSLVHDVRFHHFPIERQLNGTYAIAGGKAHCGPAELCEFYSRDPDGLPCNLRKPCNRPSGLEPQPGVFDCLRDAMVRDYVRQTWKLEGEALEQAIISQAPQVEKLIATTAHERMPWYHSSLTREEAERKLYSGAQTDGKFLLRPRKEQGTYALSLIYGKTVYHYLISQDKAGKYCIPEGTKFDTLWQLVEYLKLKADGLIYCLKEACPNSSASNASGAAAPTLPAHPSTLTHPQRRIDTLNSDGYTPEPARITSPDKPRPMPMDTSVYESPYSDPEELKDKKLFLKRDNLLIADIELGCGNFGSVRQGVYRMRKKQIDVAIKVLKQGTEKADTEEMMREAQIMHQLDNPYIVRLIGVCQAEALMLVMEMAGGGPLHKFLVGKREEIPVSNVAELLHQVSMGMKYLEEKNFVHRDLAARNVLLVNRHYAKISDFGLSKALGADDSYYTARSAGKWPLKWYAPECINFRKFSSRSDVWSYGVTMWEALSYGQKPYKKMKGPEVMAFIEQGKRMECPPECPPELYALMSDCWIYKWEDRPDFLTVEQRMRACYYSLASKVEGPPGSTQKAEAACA
The experiment can be described thus: Selectivity interaction (Kinase panel (KiNativ target engagement assay in Jurkat cells)) EUB0001635a ZAP70. It counts as cell-based. Conditions: at 1 µM.

Chain of Mitogen-activated protein kinase kinase kinase 4 (Homo sapiens) (Q9Y6R4 whole entry): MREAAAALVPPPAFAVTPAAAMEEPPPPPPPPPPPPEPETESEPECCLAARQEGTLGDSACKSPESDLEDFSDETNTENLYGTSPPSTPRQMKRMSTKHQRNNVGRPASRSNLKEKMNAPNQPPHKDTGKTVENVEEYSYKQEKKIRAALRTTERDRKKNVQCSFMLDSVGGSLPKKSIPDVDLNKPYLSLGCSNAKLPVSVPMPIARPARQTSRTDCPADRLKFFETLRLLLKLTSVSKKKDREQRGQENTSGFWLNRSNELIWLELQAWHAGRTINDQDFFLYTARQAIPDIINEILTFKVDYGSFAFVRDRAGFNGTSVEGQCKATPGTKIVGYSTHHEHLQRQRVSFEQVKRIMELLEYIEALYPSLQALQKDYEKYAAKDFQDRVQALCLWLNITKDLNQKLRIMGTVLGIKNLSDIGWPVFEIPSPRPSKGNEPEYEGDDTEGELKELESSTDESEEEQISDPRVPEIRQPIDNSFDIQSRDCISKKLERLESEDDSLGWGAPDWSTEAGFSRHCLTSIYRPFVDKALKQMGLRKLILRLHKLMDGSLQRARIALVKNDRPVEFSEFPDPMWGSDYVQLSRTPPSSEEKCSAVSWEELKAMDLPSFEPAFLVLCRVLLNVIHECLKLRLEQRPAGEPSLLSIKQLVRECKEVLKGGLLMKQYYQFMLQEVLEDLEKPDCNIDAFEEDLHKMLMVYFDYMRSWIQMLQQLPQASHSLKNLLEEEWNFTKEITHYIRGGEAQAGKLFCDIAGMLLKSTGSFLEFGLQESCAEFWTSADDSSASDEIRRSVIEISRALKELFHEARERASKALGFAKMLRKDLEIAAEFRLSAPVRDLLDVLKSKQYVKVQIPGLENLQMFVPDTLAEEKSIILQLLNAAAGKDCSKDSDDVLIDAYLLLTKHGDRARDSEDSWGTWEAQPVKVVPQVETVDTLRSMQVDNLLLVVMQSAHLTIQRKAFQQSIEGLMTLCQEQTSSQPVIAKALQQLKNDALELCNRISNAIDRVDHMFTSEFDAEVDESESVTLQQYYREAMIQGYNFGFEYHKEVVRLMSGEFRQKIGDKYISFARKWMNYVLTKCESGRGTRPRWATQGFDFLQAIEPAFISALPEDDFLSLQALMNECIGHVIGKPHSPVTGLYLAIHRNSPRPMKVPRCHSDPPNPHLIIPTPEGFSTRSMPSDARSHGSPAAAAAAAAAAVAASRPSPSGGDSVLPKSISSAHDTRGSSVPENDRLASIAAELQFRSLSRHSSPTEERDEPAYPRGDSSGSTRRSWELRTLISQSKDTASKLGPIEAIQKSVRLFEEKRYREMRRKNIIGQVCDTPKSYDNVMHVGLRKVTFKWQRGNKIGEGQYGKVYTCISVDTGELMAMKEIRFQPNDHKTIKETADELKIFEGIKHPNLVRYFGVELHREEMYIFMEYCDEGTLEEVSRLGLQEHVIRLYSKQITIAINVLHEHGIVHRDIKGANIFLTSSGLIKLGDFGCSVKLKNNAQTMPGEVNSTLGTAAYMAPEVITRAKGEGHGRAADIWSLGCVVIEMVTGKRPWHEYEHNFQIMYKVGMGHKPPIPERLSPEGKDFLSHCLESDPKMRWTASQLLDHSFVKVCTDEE

Take `CCn1c(-c2nc3cc(C(=O)N4CCCC(N)C4)ccc3n2C)cc2ccccc21` (configuration not stated): the pXC50 in experiment [1] came to 4.8 M.
Turning to `Cc1cc([C@@H](C)Nc2ccccc2C(=O)O)c2nc(N3CCOCC3)cc(=O)n2c1` [AZD-6482], the % of control in experiment [2] worked out at 100%.
In experiment [3], `COc1cc(Nc2nc(C)cc(-c3cnn4nc(OC)ccc34)n2)cc(C(F)(F)F)c1` yielded a % of control of 100%.
`CC[C@@H]1[C@H](F)C(=O)N[C@@H]1COc1nccc2cc(C(N)=O)c(OC)cc12` [ZIMLOVISERTIB]: the % of inhibition is -2.2% in experiment [4] (at 0.01 µM); 1.5% in experiment [4] (at 0.04 µM); -2.2% in experiment [4] (at 0.2 µM); 2% in experiment [4] (at 1 µM); -1.4% in experiment [4] (at 5 µM).
Broadly, the IC50 is the concentration that inhibits the measured activity by half. A lower IC50 goes with greater potency in that assay. At Ephrin type-B receptor 4, `CCC(=O)N1CC[C@H](Nc2ncnc3c2CN(c2cnc(OC)c(C(F)(F)F)c2)CC3)C1` [LENIOLISIB] yielded an IC50 greater than 10 µM.
Take `COCC(=O)NC/C=C/c1ccc2ncnc(Nc3ccc(Oc4ccc(C)nc4)c(C)c3)c2c1` [CP-724714]: the % of control in experiment [5] was found to be 100%.
Turning to `C=CC(=O)Nc1ccc(C(=O)Nc2[nH]nc3c2CN(C(=O)N[C@H](CN(C)C)c2ccccc2)C3(C)C)cc1`, the % of engagement is -13.8% in experiment [6] (Selectivity number of off-targets 0.0, Selectivity number of targets 233.0, Source Knowledge https://www.sciencedirect.com/science/article/pii/S2451945619300674?via%3Dihub) and -8.5% in experiment [6].
